Data on 8 compounds can be found in US7098336B2, “FXR NR1H4 nuclear receptor binding compounds” (Phenex Pharmaceuticals AG, priority 2001, dated 2006).

The target in one test is T1, full length human FXR (Homo sapiens, UniProt Q96RI1).
T1 construct: expressed in transfected cells; host or cells: HEK293, stably transfected with pTRexDest30-hFXR, pTRexDest30-hRXR and pGL2promoter-FXRRE
T1 sequence (Q96RI1 1-472 isoform Q96RI1-2): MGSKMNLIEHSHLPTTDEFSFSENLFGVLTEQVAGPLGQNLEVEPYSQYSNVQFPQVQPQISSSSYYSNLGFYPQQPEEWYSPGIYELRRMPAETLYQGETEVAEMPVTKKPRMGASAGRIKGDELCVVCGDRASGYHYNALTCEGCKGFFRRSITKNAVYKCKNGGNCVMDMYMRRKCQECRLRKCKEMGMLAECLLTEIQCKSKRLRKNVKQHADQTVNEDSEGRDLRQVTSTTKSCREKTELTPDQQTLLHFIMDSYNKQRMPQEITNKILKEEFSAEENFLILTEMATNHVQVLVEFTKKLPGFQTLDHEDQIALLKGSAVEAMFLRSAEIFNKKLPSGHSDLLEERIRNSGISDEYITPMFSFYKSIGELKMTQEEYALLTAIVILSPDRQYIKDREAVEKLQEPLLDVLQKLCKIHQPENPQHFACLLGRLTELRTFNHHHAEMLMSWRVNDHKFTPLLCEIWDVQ
T1 sequence (P19793 1-462 partner): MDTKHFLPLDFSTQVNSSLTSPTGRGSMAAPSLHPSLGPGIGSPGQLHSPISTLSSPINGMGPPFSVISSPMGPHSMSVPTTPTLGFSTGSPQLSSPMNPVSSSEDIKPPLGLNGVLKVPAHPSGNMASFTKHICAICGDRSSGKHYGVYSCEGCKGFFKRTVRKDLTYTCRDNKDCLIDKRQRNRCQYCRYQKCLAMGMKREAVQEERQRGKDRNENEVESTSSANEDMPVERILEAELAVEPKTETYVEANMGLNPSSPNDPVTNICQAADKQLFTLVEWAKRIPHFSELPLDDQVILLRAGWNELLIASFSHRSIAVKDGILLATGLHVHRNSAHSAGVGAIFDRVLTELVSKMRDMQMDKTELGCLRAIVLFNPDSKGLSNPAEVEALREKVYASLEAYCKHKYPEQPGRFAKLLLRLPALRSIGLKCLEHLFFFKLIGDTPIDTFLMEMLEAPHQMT
Nature of the test: Cellular gene reporter assay in stable HEK293-FXR reporter cell line (luciferase). The test is classed as cell-based. Particulars: HEK293-FXR reporter cells, 16 hours incubation, FIG. 3. An excerpt:
This example illustrates that a compound according to the invention can mediate transactivation of FXR mediated transcription in a HEK293 reporter cell line. Experiments shown were done with MOLSTRUCTURE LN 6691 (see structural formula below).
Stable HEK293-FXR reporter cell lines were generated by stably transfecting with the pTRexDest30 (Invitrogen) derivatives pTRexDest30-hFXR, pTRexDest30-hRXR and the pGL2promoter (Promega) derivative pGL2promoter-FXRRE. The full length human FXR (accession U68233) and the full length human RXRα (accession P19793) were cloned into the pTRexDest30 applying the manufacturer protocols for the Gateway™ system (Invitrogen).
The FXR response elements were (upper case and underlined) 5′-cccaGGGTGAaTAACCTcggggctctgtccctccaatcccaGGGTGAaTAACCTcggg 3′ (SEQ ID NO. 5) was created from the human IBAB-P promoter (Grober et al 1999, JBC 274, pp. 29749–29754) and integrated into the reporter plasmid pGL2promoter (Promega) according to standard methods known to those skilled in the art. […] Luciferase reporter activity were determined in triplicates from extracts of cells after incubating cells in culture medium (DMEM [Gibco-BRL]+10% FCS [PAA laboratories]) for 16 hours (5% CO2, 37° C.) containing 0.5% DMSO (control) or 0.5% DMSO with increasing concentrations of LN6691 (FIG. 3).

The target of test [1] is T2, human FXR alpha (NR1H4) (Homo sapiens, UniProt Q96RI1).
T2 sequence (Q96RI1 1-472 isoform Q96RI1-2): T1 sequence (Q96RI1 1-472 isoform Q96RI1-2)
Nature of the test: In vitro LANCE TR-FRET screening for FXR binding to coactivator TIF2. The format is biochemical. From the text:
For screening purposes a fragment of the open reading frame of human FXR alpha (NR1H4-(Acc. No: AF384555)) encoding aminoacids 187–472 was amplified by standard RT PCR procedures (see figures; SEQ ID NO. 1 and 2). Starting material was total RNA derived from human liver. The resulting cDNA obtained after reverse transcription was subsequently cloned using the Gateway™ recombination technology (Invitrogen, USA) into the expression plasmid pDest15 (Invitrogen, USA). This construct was used to express a recombinant GST-FXR fusion protein in E. coli (BL21 strain). A pDEST 17 derivative clone harboring an additional sequence encoding amino acids 548–878 of human TIF2 (Acc. No: XM—011633 RefSeq) was constructed using Gateway™ recombination technology (Invitrogen, USA) in order to obtain a construct which was used to express recombinant His-tagged TIF2 fragment could be expressed in E. coli. […]
For screening of compound libraries as provided for by the methods shown below in the examples for substances which influence the FXR/Tif 2 interaction, the Perkin Elmer LANCE technology was applied. […] For ease of handling and reduction of background from compound fluorescence LANCE technology makes use of generic fluorophore labels and time resoved detection (for detailed description see Hemmilä I, Blomberg K and Hurskainen P, Time-resolved resonance energy transfer (TR-FRET) principle in LANCE, Abstract of Papers Presented at the 3 rd Annual Conference of the Society for Biomolecular Screening, September, California (1997). […]
The LANCE signal was detected by a Perkin Elmer VICTOR2V™ Multilabel Counter applying the detection parameters listed in Table 1 below. […] For every batch of recombinant proteins amount of proteins and labeling reagents giving the most sensitive detection of hits was determined individually by analysis of dose response curves for chenodeoxycholic acid.

The target in test [2] is T2, human FXR alpha (NR1H4). The test is described as above. The format is biochemical. Also noted: EC50 AVG; other: relative to CDCA control agonist; fused on or other part: GST at the N-terminus (pDest15). Particulars: for Emax: read-out: EFFIC AVG (average efficacy, % activity relative to CDCA control agonist). From the text: For screening purposes a fragment of the open reading frame of human FXR alpha (NR1H4-(Acc. No: AF384555)) encoding aminoacids 187–472 was amplified by standard RT PCR procedures (see figures; SEQ ID NO. 1 and 2). Starting material was total RNA derived from human liver. The resulting cDNA obtained after reverse transcription was subsequently cloned using the Gateway™ recombination technology (Invitrogen, USA) into the expression plasmid pDest15 (Invitrogen, USA). This construct was used to express a recombinant GST-FXR fusion protein in E. coli (BL21 strain). A pDEST 17 derivative clone harboring an additional sequence encoding amino acids 548–878 of human TIF2 (Acc. No: XM—011633 RefSeq) was constructed using Gateway™ recombination technology (Invitrogen, USA) in order to obtain a construct which was used to express recombinant His-tagged TIF2 fragment could be expressed in E. coli. For E. coli expression of both constructs, plasmid DNA was transformed into chemically competent E. coli BL21 (Invitrogen, USA) and cells were grown to an OD600 of 0.4–0.7 before expression was induced by addition of 0.5 mM IPTG according instructions of the manufacturer (Invitrogen). After induction for 8 hours at 30° C. cells were harvested by centrifugation for 10 minutes at 5000×g. Fusion proteins were affinity purified using Glutathion sepharose (Pharmacia) or Ni-NTA Agarose (QIAGEN) according to the instructions of the respective manufacturer. Recombinant proteins were dialyzed against 20 mM Tris/HCL pH 7.9; 60 mM KCl; 5 mM MgCl2; 1 mM DTT, 0.2 mM PMSF; 10% glycerol. The TIF2 fragment was subsequently biotinylated by addition of 40–120 μl of a Biotinamidocaproate N-Hydroxysuccinimide-ester (Sigma) solution (20 mg/ml in DMSO). Overhead rotating samples were incubated for 2 hours at room temperature. Unincorporated label was then separated using G25 Gel filtration chromatography (Pharmacia Biotech, Sweden). Protein containing fractions from the column were pooled and tested for activity in the assay as described below.
For screening of compound libraries as provided for by the methods shown below in the examples for substances which influence the FXR/Tif 2 interaction, the Perkin Elmer LANCE technology was applied. This method relies on the binding dependent energy transfer from a donor to an acceptor fluorophore attached to the binding partners of interest. For ease of handling and reduction of background from compound fluorescence LANCE technology makes use of generic fluorophore labels and time resoved detection (for detailed description see Hemmilä I, Blomberg K and Hurskainen P, Time-resolved resonance energy transfer (TR-FRET) principle in LANCE, Abstract of Papers Presented at the 3 rd Annual Conference of the Society for Biomolecular Screening, September, California (1997).
For screening, 20–200 ng of biotinylated Tif 2 fragment and 10–200 ng of GST-FXR fragment were combined with 0.5–2 nM LANCE Eu-(W1024) labelled anti-GST antibody (Perkin Elmer) and 0.5–2 μg of Highly fluorescent APC-labelled streptavidin (Perkin Elmer) in the presence of 50 μM of individual compounds to be screened in a total volume of 25 μl of 20 mM Tris/HCl pH 7.9; 60 mM KCl; 5 mM MgCl2; 160 ng/μl BSA. DMSO content of the samples was kept below 4%. Samples were incubated for a minimum of 60 minutes in the dark at room temperature in FIA-Plates black 384 well med. binding (Greiner).
The LANCE signal was detected by a Perkin Elmer VICTOR2V™ Multilabel Counter applying the detection parameters listed in Table 1 below. The results were visualized by plotting the ratio between the emitted light at 665 nm and at 615 nm. For every batch of recombinant proteins amount of proteins and labeling reagents giving the most sensitive detection of hits was determined individually by analysis of dose response curves for chenodeoxycholic acid.

Where [3] appears, read: established according to Example 1 (FRET), unit inferred, b76 prints 0.16 μM for the same value, read-out: EC50 AVG.

Like-named read-outs stand apart in the source and are kept apart here.

For the compound `COc1ccccc1-c1cc(-c2ccccc2O)nc(NC[C@H]2CC[C@H](C(=O)O)CC2)n1` [LN0000006691], the EC50 on full length human FXR amounted to 1300 nM.

Turning to `O=C(O)C1CCC(CNc2nc(-c3ccccc3O)cc(-c3ccccc3F)n2)CC1` (stereo not shown) [formula (5)], the “active as agonists of the NR1H4 human nuclear receptor” value (from here on “active”) on human FXR alpha (NR1H4) [1] is reported as “active as agonists”. Turning to `O=C(O)C1CCC(CNc2nc(-c3ccccc3O)cc(-c3ccccc3F)n2)CC1` (stereo not shown) [LN0000007265], the EC50 at human FXR alpha (NR1H4) [2] (setting [3]) was 530 nM. Moreover, the Emax on human FXR alpha (NR1H4) [2] stood at 91%. In the case of `O=C(O)[C@H]1CC[C@H](CNc2nc(-c3cccs3)cc(-c3ccccc3O)n2)CC1` [formula (7)], on human FXR alpha (NR1H4) [1], the “active” value is listed as “active as agonists”. As for `O=C(O)C1CCC(CNc2nc(-c3cccs3)cc(-c3ccccc3O)n2)CC1` (stereo not shown) [LN0000006692], the EC50 at human FXR alpha (NR1H4) [2] (setting [3]) stood at 1660 nM. Also, the Emax on human FXR alpha (NR1H4) [2] is 111%.

As for `COc1ccccc1-c1cc(-c2ccccc2O)nc(NCC2CCC(C(=O)O)CC2)n1` (stereo not shown) [LN0000006691], the EC50 on human FXR alpha (NR1H4) [2] (read-out: EC50 at FXR (half-maximal effective concentration)) was found to be 160 nM. Also, the Emax at human FXR alpha (NR1H4) [2] stood at 125%. The “relative efficacy compared to GW4064 as control compound” value at full length human FXR is “about 110%”.

`COc1ccccc1-c1cc(-c2cc(C)ccc2O)nc(NC[C@H]2CC[C@H](C(=O)O)CC2)n1` [formula (6)]: at human FXR alpha (NR1H4) [1], the “active” value is reported as “active as agonists”. For the compound `COc1ccccc1-c1cc(-c2cc(C)ccc2O)nc(NCC2CCC(C(=O)O)CC2)n1` (stereo not shown) [LN0000002683], the EC50 at human FXR alpha (NR1H4) [2] (setting [3]) is 1090 nM. In addition, the Emax on human FXR alpha (NR1H4) [2] came to 134%.
